≈ marks a conversion by molar mass, not a printed value.
What was measured:
[1] = system: A2780 ovarian carcinoma cells; assay: Antiproliferative activity on A2780 cells (MTT); type: cell-based, human; conditions: Homo sapiens, A2780, 96 h, four days of incubation, read-out: Cellular activity pIC50 (converted)
Description: Cellular activity of the compounds of formula (I) was determined on A2780 tumour cells using a colorimetric assay for cell toxicity or survival (Mosmann Tim, Journal of Immunological Methods 65: 55–63, 1983)(see example C.2).
All compounds tested were dissolved in DMSO and further dilutions were made in culture medium. Final DMSO concentrations never exceeded 0.1% (v/v) in cell proliferation assays. Controls contained A2780 cells and DMSO without compound and blanks contained DMSO but no cells. MTT was dissolved at 5 mg/ml in PBS. A glycine buffer comprised of 0.1 M glycine and 0.1 M NaCl buffered to pH 10.5 with NaOH (1 N) was prepared (all reagents were from Merck).
The human A2780 ovarian carcinoma cells (a kind gift from Dr. T. C. Hamilton [Fox Chase Cancer Centre, Pennsylvania, USA]) were cultured in RPMI 1640 medium supplemented with 2 mM L-glutamine, 50 μg/ml gentamicin and 10% fetal calf serum. Cells were routinely kept as monolayer cultures at 37° C. in a humidified 5% CO2 atmosphere. Cells were passaged once a week using a trypsin/EDTA solution at a split ratio of 1:40. All media and supplements were obtained from Life Technologies. Cells were free of mycoplasma contamination as determined using the Gen-Probe Mycoplasma Tissue Culture kit (supplier: BioMérieux).
Cells were seeded in NUNC™ 96-well culture plates (Supplier: Life Technologies) and allowed to adhere to the plastic overnight. Densities used for plating were 1500 cells per well in a total volume of 200 μl medium. After cell adhesion to the plates, medium was changed and drugs and/or solvents were added to a final volume of 200 μl. Following four days of incubation, medium was replaced by 200 μl fresh medium and cell density and viability was assessed using an MTT-based assay. To each well, 25 μl MTT solution was added and the cells were further incubated for 2 hours at 37° C. The medium was then carefully aspirated and the blue MTT-formazan product was solubilized by addition of 25 μl glycine buffer followed by 100 μl of DMSO. […] Within an experiment, the results for each experimental condition are the mean of 3 replicate wells. For initial screening purposes, compounds were tested at a single fixed concentration of 10^−6 M. For active compounds, the experiments were repeated to establish full concentration-response curves. For each experiment, controls (containing no drug) and a blank incubation (containing no cells or drugs) were run in parallel. The blank value was subtracted from all control and sample values. For each sample, the mean value for cell growth (in absorbance units) was expressed as a percentage of the mean value for cell growth of the control. […] Herein the effects of test compounds are expressed as pIC50 (the negative log value of the IC50-value).

[2] = target: histone deacetylase (HeLa nuclear extracts); assay: In vitro assay for inhibition of histone deacetylase; type: biochemical; conditions: [3H]acetylated histone H4 peptide substrate
Description: The in vitro assay for inhibition of histone deacetylase (see example C.1) measures the inhibition of HDAC enzymatic activity obtained with the compounds of formula (I).
HeLa nuclear extracts (supplier: Biomol) were incubated at 60 μg/ml with 2×10^−8 M of radiolabeled peptide substrate. As a substrate for measuring HDAC activity a synthetic peptide, i.e. the amino acids 14–21 of histone H4, was used. The substrate is biotinylated at the NH2-terminal part with a 6-aminohexanoic acid spacer, and is protected at the COOH-terminal part by an amide group and specifically [^3H]acetylated at lysine 16. The substrate, biotin-(6-aminohexanoic)Gly-Ala-([^3H]-acetyl-Lys-Arg-His-Arg-Lys-Val-NH2), was added in a buffer containing 25 mM Hepes, 1 M sucrose, 0.1 mg/ml BSA and 0.01% Triton X-100 at pH 7.4. After 30 min the deacetylation reaction was terminated by the addition of HCl and acetic acid. (final concentration 0.035 mM and 3.8 mM respectively). After stopping the reaction, the free ^3H-acetate was extracted with ethylacetate. After mixing and centrifugation, the radioactivity in an aliquot of the upper (organic) phase was counted in a β-counter.
For each experiment, controls (containing HeLa nuclear extract and DMSO without compound), a blank incubation (containing DMSO but no HeLa nuclear extract or compound) and samples (containing compound dissolved in DMSO and HeLa nuclear extract) were run in parallel. In first instance, compounds were tested at a concentration of 10^−5M. […] In each test the blank value was substracted from both the control and the sample values. The control sample represented 100% of substrate deactylation. For each sample the radioactivity was expressed as a percentage of the mean value of the controls. […] Herein the effects of test compounds are expressed as pIC50 (the negative log value of the IC50-value).

[3] = Kinetic solubility in aqueous media (nephelometry); type: physicochemical; conditions: phosphate citrate buffer, pH 7.4, aqueous buffer, kinetic from dmso stock, phosphate citrate buffer pH 7.4, turbidity of three dilution steps; read-out: Solubility Score
Description: Kinetic solubility in aqueous media measures the ability of a compound to stay in aqueous solution upon dilution (see example C.3).
DMSO-stock solutions are diluted with a single aqueous buffer solvent in 3 consecutive steps. For every dilution turbidity is measured with a nephelometer.
In the first dilution step, 10 μl of a concentrated stock-solution of the active compound, solubilized in DMSO (5 mM), was added to 100 μl phosphate citrate buffer pH 7.4 and mixed. In the second dilution step, an aliquot (20 μl) of the first dilution step was further dispensed in 100 μl phosphate citrate buffer pH 7.4 and mixed. Finally, in the third dilution step, a sample (20 μl) of the second dilution step was further diluted in 100 μl phosphate citrate buffer pH 7.4 and mixed. All dilutions were performed in 96-well plates. Immediately after the last dilution step the turbidity of the three consecutive dilution steps were measured with a nephelometer. Dilution was done in triplicate for each compound to exclude occasional errors. Based on the turbidity measurements a ranking is performed into 3 classes. Compounds with high solubility obtained a score of 3 and for this compounds the first dilution is clear. Compounds with medium solubility obtained a score of 2. For these compounds the first dilution is unclear and the second dilution is clear. […] The solubility of 112 compounds was measured.

Compound	IC50 [1]	Enzyme activity pIC50 [2]	solubility [3]
COc1ccccc1-c1ccc(S(=O)(=O)N2CCN(c3ncc(C(=O)NO)cn3)CC2)cc1 [Compound 103]	149 nM	7.586	75.8 to 454 µM (≈ 35.6 to 213 µg/mL)
CC(C)(C)c1ccc(-c2ccc(S(=O)(=O)N3CCN(c4ncc(C(=O)NO)cn4)CC3)cc2)cc1 [Compound 105]	798 nM	6.494	< 75.8 µM
Cc1ccccc1-c1ccc(S(=O)(=O)N2CCN(c3ncc(C(=O)NO)cn3)CC2)cc1 [Compound 106]	258 nM	7.797	75.8 to 454 µM (≈ 34.4 to 206 µg/mL)
O=C(NO)c1cnc(N2CCN(S(=O)(=O)c3ccc(-c4ccc(F)cc4F)cc3)CC2)nc1 [Compound 107]	144 nM	7.663	75.8 to 454 µM (≈ 36 to 216 µg/mL)
O=C(NO)c1cnc(N2CCN(S(=O)(=O)c3ccc(-c4ccccc4Cl)cc3)CC2)nc1 [Compound 108]	209 nM	8.117	< 75.8 µM
O=C(NO)c1cnc(N2CCN(S(=O)(=O)c3ccc(/C=C/c4ccccc4)cc3)CC2)nc1 [Compound 109]	258 nM	7.176	75.8 to 454 µM (≈ 35.3 to 212 µg/mL)
O=C(NO)c1cnc(N2CCN(S(=O)(=O)c3ccc(-c4ccccc4C(F)(F)F)cc3)CC2)nc1 [Compound 110]	445 nM	7.713	75.8 to 454 µM (≈ 38.5 to 231 µg/mL)
Cc1noc(C)c1-c1ccc(S(=O)(=O)N2CCN(c3ncc(C(=O)NO)cn3)CC2)cc1 [Compound 112]	330 nM	7.54	> 454 µM
CN(C)Cc1sccc1-c1ccc(S(=O)(=O)N2CCN(c3ncc(C(=O)NO)cn3)CC2)cc1 [Compound 124]	47.9 nM	8.358	> 454 µM
O=C(NO)c1cnc(N2CCN(S(=O)(=O)c3ccc(-c4ccccc4)cc3)CC2)nc1 [Compound 128]	81.3 nM	8.078	75.8 to 454 µM (≈ 33.3 to 200 µg/mL)
O=C(NO)c1cnc(N2CCN(S(=O)(=O)c3ccc(-c4cccc5c4oc4ccccc45)cc3)CC2)nc1 [Compound 131]	546 nM	6.058	75.8 to 454 µM (≈ 40.1 to 241 µg/mL)
CN(C)c1cccc(-c2ccc(S(=O)(=O)N3CCN(c4ncc(C(=O)NO)cn4)CC3)cc2)c1 [Compound 135]	287 nM	7.631	> 454 µM
O=C(NO)c1cnc(N2CCN(S(=O)(=O)c3ccc(-c4ccc[nH]4)cc3)CC2)nc1 [Compound 137]	1120 nM	7.169	75.8 to 454 µM (≈ 32.5 to 195 µg/mL)
CN1CCN(Cc2sccc2-c2ccc(S(=O)(=O)N3CCN(c4ncc(C(=O)NO)cn4)CC3)cc2)CC1 [Compound 144]	81.5 nM	8.428	> 454 µM
O=C(NO)c1cnc(N2CCN(S(=O)(=O)c3ccc(-c4ccsc4CN4CCN(CCOCCO)CC4)cc3)CC2)nc1 [Compound 150]	164 nM	8.011	75.8 to 454 µM (≈ 47.9 to 287 µg/mL)

The remaining lines, values ahead:

IC50 [1]	Enzyme activity pIC50 [2]	solubility [3]	Compound
440 nM	7.561	< 75.8 µM	O=C(NO)c1cnc(N2CCN(S(=O)(=O)c3ccc(-c4cccc5cccnc45)cc3)CC2)nc1 [Compound 111]
750 nM	7.428	> 454 µM	O=C(NO)c1cnc(N2C[C@@H]3C[C@H]2CN3S(=O)(=O)c2ccc3ccccc3c2)nc1 [Compound 114]
93.1 nM	8.659	75.8 to 454 µM (≈ 41.9 to 251 µg/mL)	O=C(NO)c1cnc(N2CCN(S(=O)(=O)c3ccc(-c4ccccc4OCCN4CCCC4)cc3)CC2)nc1 [Compound 125]
68.9 nM	8.482	> 454 µM	O=C(NO)c1cnc(N2CCN(S(=O)(=O)c3ccc(-c4cccc(CCN5CCCC5)c4)cc3)CC2)nc1 [Compound 127]
752 nM	6.159	75.8 to 454 µM (≈ 41.4 to 248 µg/mL)	O=C(NO)c1cnc(N2CCN(S(=O)(=O)c3ccc(-c4cccc5c4sc4ccccc45)cc3)CC2)nc1 [Compound 130]
1260 nM	7.869	75.8 to 454 µM (≈ 35.4 to 213 µg/mL)	Cc1cccc(C)c1-c1ccc(S(=O)(=O)N2CCN(c3ncc(C(=O)NO)cn3)CC2)cc1 [Compound 133]
316 nM	7.662	75.8 to 454 µM (≈ 40.1 to 241 µg/mL)	COc1ccc(-c2ccc(S(=O)(=O)N3CCN(c4ncc(C(=O)NO)cn4)CC3)cc2)c(OC)c1OC [Compound 134]
513 nM	7.288	< 75.8 µM	Cc1cc(C)cc(-c2ccc(S(=O)(=O)N3CCN(c4ncc(C(=O)NO)cn4)CC3)cc2)c1 [Compound 136]
249 nM	7.545	75.8 to 454 µM (≈ 35.7 to 214 µg/mL)	COc1cncc(-c2ccc(S(=O)(=O)N3CCN(c4ncc(C(=O)NO)cn4)CC3)cc2)c1 [Compound 138]
286 nM	8.01	> 454 µM	O=C(NO)c1ccc(N2CCN(S(=O)(=O)c3ccc4ccccc4c3)CC2)nc1 [Compound 142]
1320 nM	7.002	> 454 µM	CN(C)CC1CN(c2ncc(C(=O)NO)cn2)CCN1S(=O)(=O)c1ccc(-c2ccccc2)cc1 (stereo not drawn) [Compound 143]
279 nM	8.06	< 75.8 µM	O=C(NO)c1cnc(N2CCN(S(=O)(=O)c3ccc(-c4ccsc4CN(CCO)CCO)cc3)CC2)nc1 [Compound 145]
693 nM	6.765	< 75.8 µM	CN(C)S(=O)(=O)N1CCN(Cc2sccc2-c2ccc(S(=O)(=O)N3CCN(c4ncc(C(=O)NO)cn4)CC3)cc2)CC1 [Compound 147]
176 nM	7.94	< 75.8 µM	O=C(NO)c1cnc(N2CCN(S(=O)(=O)c3ccc(-c4ccsc4CN4CCOCC4)cc3)CC2)nc1 [Compound 148]
144 nM	8.175	75.8 to 454 µM (≈ 43.4 to 260 µg/mL)	COC1CCN(Cc2sccc2-c2ccc(S(=O)(=O)N3CCN(c4ncc(C(=O)NO)cn4)CC3)cc2)CC1 [Compound 149]

Reference: US7205304B2, “Sulfonyl-Derivatives as novel inhibitors of histone deacetylase” (Janssen Pharmaceutica N.V., priority 2002, dated 2007)
